Experiments:
[1] = tested on: lymphocytic leukemia P388; assay: Lymphocytic Leukemia P388 Test; type: in vivo, BDF1 mice; settings: Table IV, i.p. days 1, 5 and 9
Text: (§1) Certain in vivo testing systems and protocols have been developed by the National Cancer Institute for testing compounds to determine their suitability as anti-neoplastic agents. These have been reported in "Cancer Chemotherapy Reports", Part III, Vol. 3, No. 2 (1972), Geran, et al. These protocols have established standardized screening tests which are generally followed in the field of testing for antitumor agents. Of these systems, lymphocytic leukemia P388, melanotic melanoma B16, L1210 leukemia and colon 26 adenocarcinoma are particularly significant to the present invention. These neoplasms are utilized for testing as transplantable tumors in mice. Generally, significant anti-tumor activity, shown in these protocols by a percentage increase of mean survival times of the treated animals (T) over the control animals (C), is indicative of similar results in human leukemias and solid tumors.
The animals used were BDF1 mice, all of one sex, weighing a minimum of 17 g and all within a 3 g weight range. There were 5 or 6 mice per test group. The tumor transplant was by intraperitoneal injection of 0.5 ml of dilute ascitic fluid containing 10^6 cells of lymphocytic leukemia P388. LL-E33288 antibiotics were tested in the P388 system both as the individual β1-Br and […] components and as a complex of all components (Bromo-complex). The test compounds were administered intrapertioneally at a volume of 0.5 ml in 0.2% Klucel in normal saline on days 1, 5 and 9 (relative to tumor inoculation) at the indicated doses. The mice were weighed and the survivors recorded on a regular basis for 30 days. The median survival time and the ratio of survival time for treated (T)/control (C) animals were calculated. The positive control compound was Cisplatin given as an intraperitioneal injection in 0.5 ml of 0.2% Klucel on days 1, 5 and 9 at the indicated doses.
If T/C X 100 (%) is 125 or over, the tested compound is considered to have significant anti-tumor activity.
(§2) In the same manner, the following iodo-components were tested for antineoplastic activity.

[2] = tested on: lymphocytic leukemia L1210; assay: Lymphocytic Leukemia L1210 Test; type: in vivo, BDF1 mice; settings: Table VI, i.p., control 8.3 days
Text: as §1
The animals used were BDF1 mice, all of one sex, weighing a minimum of 17 g and all within a 3 g weight range. There were 6 mice in each test group and 18 in control groups. The tumor transplant was by intraperitoneal injection of 0.5 ml of lymphocytic leukemia L1210 at a concentration of 10^5 cells per mouse. LL-E33288 antibiotics were tested in the L1210 system both as the individual β1-Br component and as a complex of all components (Bromo-complex). The test compounds were administered on days 1, 5 and 9 or days 1 through 9 (relative to tumor inoculation) at various doses. The mice were weighed and survivors recorded on a regular basis for 30 days. The median survival time and the ratio of survival time for treated (T)/control (C) animals were calculated. The positive control compound was 1,4-dihydroxy-5,8-bis[[2-(2-hydroxyethylamino)ethyl]amino]anthraquinone dihydrochloride or Cisplatin given intraperitoneally at the indicated dose. If T/C X 100 (%) is 125 or over, the tested compound is considered to have significant anti-tumor activity.
as §2

Colon 26 tumor = assay: Colon 26 Adenocarcinoma Test; type: in vivo, CD2F1 female mice
Text: as §1
The animals used were CD2F1 female mice weighing a minimum of 17 g and all within a 3 g weight range. There were 5 or 6 mice per test group with three groups of 5 or 6 animals used as untreated controls for each test. The tumor implant was by intraperitoneal (or subcutaneous) injection of 0.5 ml of a 2% Colon 26 tumor brei in Eagle's MEM medium containing antibiotics. LL-E33288 antibiotics were tested in the Colon 26 system as a complex (Bromo-complex) of all components. The test compounds were administered intraperitoneally on days 1, 5 and 9 (relative to tumor implant doses). The mice were weighed and deaths recorded on a regular basis for 30 days. The median survival times for treated (T)/control (C) animals were calculated. The positive control compound was Cisplatin. If T/C X 100 (%) is 130 or over, the tested compound is considered to have significant anti-tumor activity.
as §2

melanotic melanoma B16 = assay: Melanotic Melanoma B16 Test; type: in vivo, BDF1 mice; settings: Table V, i.p. days 1 through 9, control 16 days
Text: as §1
The animals used were BDF1 mice, all of the same sex, weighing a minimum of 17 g and all within a 3 g weight range. There are normally 6 animals per test group. A 1 g portion of melanotic melanoma β16 tumor was homogenized in 10 ml of cold balanced salt solution and a 0.5 ml aliquot of the homogenate was implanted intraperitoneally into each of the test mice. LL-E33288 antibiotics were tested in the β16 system both as the individual β1-Br and γ1-Br components and as a complex of all components (Bromo-complex). The test compounds were administered intraperitioneally on days 1 through 9 (relative to tumor inoculation) at various doses. The mice were weighed and survivors recorded on a regular basis for 60 days. The median survival time and the ratio of survival time for treated (T)/control (C) animals were calculated. The positive control compounds were Cisplatin or Adriamycin. The results of this test appear in Table V. If T/C X 100 (%) is 125 or over, the tested compound is considered to have significant anti-tumor activity.
as §2

[3] = dose 0.06 mg/kg, control 10.6 days
[4] = dose 0.06 mg/kg, control 12.4 days
[5] = dose 0.25 mg/kg, control 10.6 days
[6] = dose 0.4 mg/kg, control 12.4 days
[7] = dose 1.0 mg/kg, control 10.6 days
[8] = dose 1.0 mg/kg, control 12.4 days
[9] = Table VII, i.p. days 1, 5 and 9, dose 0.25 mg/kg, control 18.6 days
[10] = Table VII, i.p. days 1, 5 and 9, dose 0.5 mg/kg, control 18.6 days
[11] = Table VII, i.p. days 1, 5 and 9, dose 1 mg/kg, control 18.6 days
[12] = Table XII, dose 0.5 mg/kg, control 18.5 days
[13] = Table XII, dose 1 mg/kg, control 18.5 days
[14] = Table XII, dose 2 mg/kg, control 18.5 days

For N.N.[Cl][Pt][Cl] [Cisplatin, reference compound], which “Median Survival” value [1, 3] is on record?
The value was 14.5 days.

And the “T/C x 100” value [1, 3]?
The value was 137%.

And the “Median Survival” value [1, 4]?
Its value is 15 days.

And the “T/C x 100” value [1, 4]?
Its value is 121%.

And the “Median Survival” value [1, 5]?
Its value is 15 days.

And the “T/C x 100” value [1, 5]?
Its value is 142%.

And the “Median Survival” value [1, 6]?
Its value is 19 days.

And the “T/C x 100” value [1, 6]?
The value was 153%.

What about the “Median Survival” value [1, 7] of the same compound?
Its value is 21.5 days.

What about the “T/C x 100” value [1, 7] of the same compound?
The value was 203%.

What about the “Median Survival” value [1, 8] of the same compound?
The value was 25.5 days.

What about the “T/C x 100” value [1, 8] of the same compound?
Its value is 206%.

What about the “Median Survival” value ([2]; dose 1.25 mg/kg) of the same compound?
Its value is 11 days.

What about the “T/C x 100” value ([2]; dose 1.25 mg/kg) of the same compound?
Its value is 133%.

And the “Median Survival” value ([2]; dose 2.5 mg/kg)?
Its value is 12 days.

And the “T/C x 100” value ([2]; dose 2.5 mg/kg)?
The value was 145%.

And the “Median Survival” value ([2]; dose 5 mg/kg)?
Its value is 7.5 days.

And the “T/C x 100” value ([2]; dose 5 mg/kg)?
The value was 90%.

And the “Median Survival” value (Colon 26 tumor; [9])?
Its value is 37.5 days.

What about the “T/C x 100” value (Colon 26 tumor; [9]) of the same compound?
The value was 202%.

What about the “Median Survival” value (Colon 26 tumor; [10]) of the same compound?
The value was 38.5 days.

And the “T/C x 100” value (Colon 26 tumor; [10])?
Its value is 207%.

And the “Median Survival” value (Colon 26 tumor; [11])?
The value was 29 days.

And the “T/C x 100” value (Colon 26 tumor; [11])?
The value was 156%.

And the “Median Survival” value (Colon 26 tumor; [12])?
Its value is 23.5 days.

And the “T/C x 100” value (Colon 26 tumor; [12])?
Its value is 127%.

What about the “Median Survival” value (Colon 26 tumor; [13]) of the same compound?
Its value is 27.5 days.

And the “T/C x 100” value (Colon 26 tumor; [13])?
Its value is 149%.

And the “Median Survival” value (Colon 26 tumor; [14])?
The value was 15.5 days.

What about the “T/C x 100” value (Colon 26 tumor; [14]) of the same compound?
Its value is 84%.

And the “Median Survival” value (melanotic melanoma B16; dose 0.05 mg/kg)?
Its value is 21.5 days.

And the “T/C x 100” value (melanotic melanoma B16; dose 0.05 mg/kg)?
Its value is 134%.

And the “Median Survival” value (melanotic melanoma B16; dose 0.1 mg/kg)?
The value was 23 days.

What about the “T/C x 100” value (melanotic melanoma B16; dose 0.1 mg/kg) of the same compound?
The value was 144%.

And the “Median Survival” value (melanotic melanoma B16; dose 0.2 mg/kg)?
Its value is 25 days.

What about the “T/C x 100” value (melanotic melanoma B16; dose 0.2 mg/kg) of the same compound?
The value was 156%.

What about the “Median Survival” value (melanotic melanoma B16; dose 0.4 mg/kg) of the same compound?
Its value is 25 days.

And the “T/C x 100” value (melanotic melanoma B16; dose 0.4 mg/kg)?
Its value is 156%.

Source: patent EP0182152B1, “Antitumor antibiotics (LL-E33288 Complex)” (AMERICAN CYANAMID COMPANY, priority 1984, dated 1986)
